# From article PMC6943527, “Are the Hydantoin-1,3,5-triazine 5-HT6R Ligands a Hope to a Find New Procognitive and Anti-Obesity Drug? Considerations Based on Primary In Vivo Assays and ADME-Tox Profile In Vitro” (Molecules, 2019)
# Assays:
# [1] = Metabolic stability and metabolic pathways in human liver microsomes
# Experimental: The pharmacokinetic parameters of compounds were estimated by using human liver microsomes (HLMs) (Sigma-Aldrich, St. Louis, MO, USA). The t1/2 values and intrinsic clearances (CLint) were calculated with IS by using the protocols and formulas proposed by Obach [38]. […] VL was used as the reference unstable drug.
# [2] = Elevated plus-maze (EPM) test; assay type: in vivo, male Wistar rats; conditions: for Total distance / X Ambulation / Y Ambulation: mean ± SEM
# Experimental: The experiments were performed on male Wistar rats (200–220 g) obtained from an accredited animal facility at the Jagiellonian University Medical College, Poland. The animals were housed in group of four in controlled environment (ambient temperature 21 ± 2 °C; relative humidity 50%–60%; 12-h light/dark cycles (lights on at 8:00). Standard laboratory food (LSM-B) and filtered water were freely available. Animals were randomly assigned to treatment groups. All the experiments were performed by two observers unaware of the studied treatment between 9:00 and 14:00 on separate groups of animals. All animals were used only once. Procedures involving animals and their care were conducted in accordance with current European Community and Polish legislation on animal experimentation. Additionally, all efforts were made to minimize animal suffering and to use only the number of animals necessary to produce reliable scientific data. The experimental protocols and procedures described in this manuscript were approved by the I Local Ethics Commission in Cracow (no 200/2018), complied with the European Communities Council Directive of 24 November 1986 (86/609/EEC), and were in accordance with the 1996 National Institutes of Health Guide for the Care and Use of Laboratory Animals.
# All compounds were suspended in 1% Tween 80 immediately before administration in a volume of 2 mL/kg. Compounds were intraperitoneally administered 60 min before testing. Control animals received vehicle (1% Tween 80) according to the same schedule.
# The testing procedure was based on a method described by. The plus-maze apparatus (an automated device produced by Campden Instruments Ltd. (United Kingdom) was made of durable, high density, non-porous black plastic, elevated to a height of 50 cm, and consisted of two open arms (50 × 10 cm) and two closed arms (50 × 10 cm, and 30 cm high walls) arranged so that the two arms of each type were opposite each other. The floor of the plus-maze was made of infrared transparent material, which means that there were no visible sensors. The plus-maze apparatus was connected to PC software by a control chassis. The experiments were conducted in a darkened room, and only the center of the maze was illuminated with low-intensity light (30 lux measured on the maze level). Each rat was gently placed in the center of the plus-maze, facing one of the closed arms, immediately after a 5-min adaptation period in a plastic black box (60 × 60 × 35 cm), to increase the overall activity in the EPM. During a 5-min test period, an automated motor monitor system recorded the number of entries into the closed and open arms and the time spent in either type of arm. The device counted an effective arm-entry when the four paws of a rat were into any arm. The maze was thoroughly cleaned after each trial. The EPM test is an “unconditional” anxiety-like test based on rodents’ natural aversion to heights and open space.
# The experiment was performed using an EPM apparatus (details see above). Total ambulation (the total distance covered by a rat and ambulation along the X and Y axes) was taken into account to discern drug effects on general activity from those on open-arm exploration during a 5-min test period (i.e., the time equal to the observation period in the EPM test). Rats’ behavior was not videotaped during the test.
# [3] = target: D2; set-up: method as in PMID 30282913; conditions: radioligand binding, average of at least two independent experiments; read-out: Ki D2 [3H]-Raclopride; cited from earlier work
# [4] = set-up: method as in PMID 30282913; conditions: overeating model, vs control group; cited from earlier work
# [5] = target: 5-HT1A; set-up: method as in PMID 30282913; conditions: radioligand binding, average of at least two independent experiments; read-out: Ki 5-HT1A [3H]-8-OH-DPAT; cited from earlier work
# [6] = set-up: method as in PMID 30530073; conditions: QikProp, Schrödinger Suite; cited from earlier work
# [7] = Plasma protein binding, TRANSIL XL PPB assay; conditions: human, immobilized HSA and AGP at 24:1 (TRANSIL XL PPB assay)
# Experimental: (§1) The immobilized HSA and AGP used in this study was included in the commercial test TRANSIL^XL PPB (plasma protein binding) assay.
# (§2) The study was performed with use of the commercial TRANSIL^XL PPB Assay (Sovicell, Leipzig, Germany). The test was performed according to recommendations from the protocol provided by the manufacturer. […] Next, the plate was centrifugated at 750 g for 10 min. The supernatants were collected and analyzed by LC/MS.
# (§3) The total fraction bound was estimated by:(3) fb=1−1/1+[HSA]/KDHSA+[AGP]/KDAGP
# [8] = tested on: human serum albumin (HSA) and α1-acid glycoprotein (AGP); test: Plasma protein binding, TRANSIL XL PPB assay
# Experimental: as §1, §2, §3
# [9] = 0.3 mg/kg i.p., 60 min before test, 5-min session
# [10] = 1 mg/kg i.p., 60 min before test, 5-min session
# [11] = 3 mg/kg i.p., 60 min before test, 5-min session
compound,measurement,setting,value
"CN1CCN(c2nc(N)nc(CN3C(=O)NC(C)(c4ccc5ccccc5c4)C3=O)n2)CC1 (stereo not drawn) [KMP-10, 3-((4-amino-6-(4-methylpiperazin-1-yl)-1,3,5-triazin-2-yl)methyl)-5-methyl-5-(naphthalen-2-yl)imidazolidine-2,4-dione]","Metabolic Pathway, metabolite M1","[1]; HLMs, 120 min incubation",demethylation
same,"Metabolic Pathway, metabolite M2","[1]; HLMs, 120 min incubation",hydroxylation
same,"Metabolic Pathway, metabolite M3","[1]; HLMs, 120 min incubation",demethylation and hydroxylation
same,"Metabolic Pathway, metabolite M4","[1]; HLMs, 120 min incubation",hydroxylation and dehydrogenation
same,Intrinsic Clearance CLint,"[1]; HLMs, reactions terminated at 5, 15, 30 and 45 min",3.74 mL/min/kg
same,"t1/2, fold longer than verapamil","[1]; HLMs, vs unstable reference verapamil",~ 8 fold
same,CLint scaled,"[1]; human, liver microsomes",3.74 mL/min/kg
same,half-life,"[1]; human, liver microsomes, Half-Life t1/2, HLMs, reactions terminated at 5, 15, 30 and 45 min",3.98 h
same,half-life,"[1]; human, liver microsomes, t1/2 in vitro, HLMs, as restated in comparison to SUVN-502",> 3 h
same,Total distance,[2]; [9],3240 ± 209 cm
same,X Ambulation,[2]; [9],116 ± 18
same,Y Ambulation,[2]; [9],98 ± 20
same,Total distance,[2]; [10],4558 ± 205 cm
same,X Ambulation,[2]; [10],152 ± 17
same,Y Ambulation,[2]; [10],63 ± 12
same,Total distance,[2]; [11],3881 ± 298 cm
same,X Ambulation,[2]; [11],131 ± 18
same,Y Ambulation,[2]; [11],133 ± 25
same,Anxiolytic-like activity in EPM test,"[2]; rats, doses of 1 and 3 mg/kg i.p., 60 min before test",showed anxiolytic-like activity
same,Locomotor activity in EPM test,"[2]; rats, i.p.",no changes
same,Percentage of time spent in the open arms,"[2]; rats, i.p., 5-min session, ANOVA F(3,22) = 15.774, p < 0.0001",increased
same,Time spent in the open arms,"[2]; rats, i.p., 5-min session, ANOVA F(3,22) = 17.100, p < 0.0001",increased
same,Distance travelled in the open arms,"[2]; rats, i.p., 5-min session, ANOVA p < 0.01",increased
same,Ki,[3],4.25 µM
same,Increase of body mass,[4],significantly lower increase
same,Ki,[5],14.2 µM
same,QPlogBB,[6],−0.92
same,"fraction unbound at 12 min, 5 µM",[7],0.155
same,PPB KD,"[8]; immobilized HSA and AGP 24:1, 5 µM compound",112 µM
same,"PPB KD, fold higher than warfarin",[8]; vs warfarin,~ 10 fold
